Test results taken from PubChem BioAssay AID488890 (Southern Research Specialized Biocontainment Screening …, 2010).
Inconclusive results are not listed. Calls of active or inactive are those of the source. How the calls were made is not given here.

Tested on: Mycobacterium tuberculosis non-replicating, growth inhibition
Assay: growth inhibition of non-replicating M. tuberculosis (AID 488890)

Compound	IC50
CC1=NN(C(=O)c2csc(C(C)C)c2)C(O)(C(F)(F)F)C1 (configuration not stated)	0.36 µM
O=C(N/N=C/c1ccc[nH]1)c1ccncc1	2.22 µM
Oc1ccccc1/C=N/Nc1nc2ccccc2o1	0.19 µM
CC(C)c1ccc2[nH]c3c(c2c1)CCC/C3=N\NC(=O)c1ccncc1	8.7 µM
S=c1c2c(nc3nc[nH]n13)CCC2	4.68 µM
O=C(COc1ccc(F)cc1)Nc1ccc2c(c1)OCCO2	6.38 µM
NC(=O)C1CCN(C2CC(=O)NC2=O)CC1 (configuration not stated)	15.7 µM (inactive)
Cc1ccc(-c2cc(C(F)F)nc(S(C)(=O)=O)n2)cc1	6.96 µM
CN1CCN(Cc2cc(C(C)(C)C)c(O)c(C(C)(C)C)c2)CC1	11.8 µM (inactive)
Cc1csc(=Nc2cccnc2)n1CC1CCCCC1	17.5 µM (inactive)
CSc1ccc(CNc2ncc(-c3cccc([N+](=O)[O-])c3)n2C)cc1	21.1 µM (inactive)
COc1ccc(OC(=O)C(C)N2C(=O)c3ccccc3C2=O)cc1 (configuration not stated)	12.3 µM (inactive)
Cc1cccc(NC(=O)CCSc2nnc(Cc3ccccc3)o2)c1	4.09 µM
CN1C(=O)N(C)c2ccc(C=O)c3cccc1c23	3.65 µM
COC(=O)COc1ccc2c(=O)c(-c3ccccc3OC)coc2c1	7.87 µM
O=[N+]([O-])c1ccc(-c2nc3ccc([N+](=O)[O-])cc3[nH]2)cc1	16 µM (inactive)
COc1cccc(NC(=O)c2cnc(SC)nc2)c1	10.4 µM (inactive)
Cc1[nH]n(-c2cccc(Cl)c2)c(=O)c1/C=N/n1c(C)nc2ccccc2c1=O	19.5 µM (inactive)
CN(C)CCCN(C(=O)CCc1ccccc1)c1nc2ccc(Cl)cc2s1	12.7 µM (inactive)
O=C(Nc1sc2c(c1C(=O)O)CCCCC2)c1ccccc1F	15.6 µM (inactive)
CCOC(=O)N1CCC(N2CCCC(C(=O)c3ccc4cc(OC)ccc4c3)C2)CC1 (configuration not stated)	18.7 µM (inactive)

Compound	IC50
O=C(CCC1CCCC1)c1c(O)c2ccccc2oc1=O	1.93 µM
COc1cc(/C=C2\C(=O)N(c3ccc(S(N)(=O)=O)cc3)N=C2C)ccc1OC(=O)c1ccco1	7.44 µM
S=c1[nH]cnc2sc(-c3ccccc3)cc12	33.3 µM (inactive)
CN(C)c1c2ccccc2nc2c(F)c(F)c(F)c(F)c12	5.75 µM
COc1cc(/C=C2/C(=O)NN(c3cccc(F)c3)C2=O)ccc1OC(=O)c1ccco1	5.04 µM
CCCOC(=O)c1ccc(NC(=O)c2ccc(Br)o2)cc1	2.96 µM
CC(C)(C)/C(O)=C/c1nc2ccccc2oc1=O	6.85 µM
COc1ccc(C2(O)CCN(CC(=O)Nc3nc(-c4ccccc4)cs3)CC2)cc1	24.2 µM (inactive)
O=S(=O)(Nc1nccs1)c1ccc(NCc2cc(Br)cc(Br)c2O)cc1	10.7 µM (inactive)
O=C(COC(=O)CCc1c[nH]c2ccccc12)Nc1cc([N+](=O)[O-])ccc1Cl	3.17 µM
CCOC(=O)COc1ccc2c(c1)c(C(C)=O)c(C)n2Cc1ccccc1	4.62 µM
O=C(NNc1nc2ccccc2s1)c1ccc(F)cc1	43.8 µM (inactive)
CC(C)[C@@H]1CC[C@@H](C)C[C@H]1OC(=O)C[n+]1cc(-c2ccc(Cl)cc2)n2c1CCCCC2	2.18 µM
O=[N+]([O-])c1ccc2nc(SCc3cn4cc(Cl)ccc4n3)[nH]c2c1	8.17 µM
O=[N+]([O-])c1cccnc1N/N=C/c1ccccc1O	2.87 µM
COc1ccc(NCC(=O)N2CCCC2)cc1Cl	10.8 µM (inactive)
CC(=O)Nc1sc2c(c1-c1nc3ccccc3s1)CCN(C(C)C)C2	6.35 µM
CC(C)CN(Cc1c(O)ccc2ccccc12)CC(C)C	20.4 µM (inactive)
CCCn1c(NC(=O)c2ccccc2)nc2ccccc21	8.74 µM
Cc1cc(Br)ccc1OCCCCN1CCCCC1	14.4 µM (inactive)
CCCOC(=O)c1ccc(NC(=O)Cc2cccs2)cc1	24.1 µM (inactive)

Compound	IC50
CSc1ccc(C(=O)C2CCCN(Cc3cc4ccccc4[nH]3)C2)cc1 (configuration not stated)	11.1 µM (inactive)
CCCCOC(=O)c1ccc(NC(=O)C2CCCO2)cc1 (configuration not stated)	10 µM (inactive)
O=C(OCn1nnc2ccccc2c1=O)c1ccc(N2CCOCC2)c([N+](=O)[O-])c1	22.8 µM (inactive)
N=c1oc2ccccc2cc1C(=O)Nc1ccccc1	33 µM (inactive)
O=C(c1ccccc1)n1c(=O)c(F)cn(COCCBr)c1=O	21 µM (inactive)
CO/N=C/CC(=O)c1ccc(OC)cc1	30.5 µM (inactive)
CC(C)[C@H](NC(=O)c1ccc(Br)cc1)C(=O)NC1CCCCC1	1.37 µM
O=C1/C(=C/C=C/c2ccccc2)Oc2c1ccc(O)c2CN1CCN(CCO)CC1	36.8 µM (inactive)
O=C1c2ccccc2CC1Sc1nnc(-c2ccncc2)o1 (configuration not stated)	23.9 µM (inactive)
CCOC(=O)COc1cc(O)c2c(=O)cc(-c3ccccc3)oc2c1	0.44 µM
c1ccc(-c2n[nH]c(-c3ccccn3)n2)nc1	6.04 µM
O=C(CCN1CCCCCC1)c1ccccc1	9.1 µM
O=C(NCCSc1ccccc1)c1ccc(Br)cc1	32.1 µM (inactive)
Cc1ccc(C)c(-c2csc(NC(=O)c3cnccn3)n2)c1	3.13 µM
O=C(c1cc(F)ccc1F)C1CCCN(Cc2ccc3nonc3c2)C1 (configuration not stated)	12.7 µM (inactive)
Cc1ccc(-c2nnc(NC(=O)c3ccco3)o2)c(C)c1	6.85 µM
Cc1ccc(C(=O)N/N=C\c2ccc([N+](=O)[O-])s2)cn1	3.36 µM
Cc1ccc(-c2nnc(-c3cccs3)o2)cc1	2 µM
CC1=NNC(=O)/C1=C\c1cn(-c2ccccc2)nc1-c1ccccc1	7.73 µM
Cc1ccc(S(=O)(=O)N2CCC(C(=O)OCc3ccccc3)CC2)cc1C	9.82 µM
O=C(Nc1nnc(-c2ccco2)o1)c1ccc([N+](=O)[O-])s1	22.4 µM (inactive)

Compound	IC50
Cc1c(-c2ccc(Br)cc2)nc2ccccn12	18.9 µM (inactive)
COc1ccccc1CCNC(=O)c1ccc(C)o1	2.96 µM
CCC(CC)COC(=O)C(C#N)c1nc2ccccc2nc1N1CCN(CC)CC1 (configuration not stated)	15.4 µM (inactive)
CC(=O)Nc1nc2ccccc2n1Cc1ccc(Cl)cc1	1.93 µM
FC(F)c1nnc2ccc(Cl)nn12	5.9 µM
O=C(CCNc1ccc(F)cc1)c1ccco1	6.12 µM
CCCNC(=O)NC(=O)COc1ccc(-c2ccc(C#N)cc2)cc1	2.54 µM
COc1ccc(C2=NC(=O)/C(=C\c3cc(OC)c(OC)c(OC)c3)O2)cc1	3.37 µM
c1ccc(-c2nnc(SCc3cn4ccsc4n3)o2)cc1	11.1 µM (inactive)
O=C(NNc1ccc([N+](=O)[O-])cc1)c1ccccc1Cl	9.32 µM
Cc1cccnc1NC(=O)c1c(O)c2ccccc2n(C)c1=O	32 µM (inactive)
C/C(=N/NC(=O)c1ccncc1)C1=C(O)CC(C)(C)CC1=O	13 µM (inactive)
Cc1[nH]n2c(=O)c3c(nc2c1-c1ccccc1)CCCC3	13.6 µM (inactive)
O=[N+]([O-])c1ccc(/C=N/n2c(CO)nc3ccccc32)s1	1.18 µM
Cn1c(=O)c(C(=O)Nc2ccccn2)c(O)c2ccccc21	13.2 µM (inactive)
N#CC1=C(c2ccccc2)/C(=C/c2ccccc2)OC1=O	2.82 µM
Cc1cc(C(=O)N/N=C/c2ccc(OC(=O)c3ccccc3Br)cc2)n[nH]1	15.6 µM (inactive)
OCC#CCSc1nnc(-c2ccc(Br)cc2)o1	0.33 µM
CC(=O)Oc1ccc(N(C(C)=O)S(=O)(=O)c2cccs2)c2ccccc12	11.6 µM (inactive)
